# Measurements from patent US11155546B2, “4,6,7-trisubstituted 1,2-dihydropyrrolo[3,4-c]pyridin/pyrimidin-3-one derivatives and uses thereof” (SHANGHAI HAIYAN PHARMACEUTICAL TECHNOLOGY CO., LTD., priority 2017, dated 2021).
# Tests used:
# wild-type EGFR kinase = wild-type EGFR kinase (Homo sapiens (Human), UniProt P00533); assay: Wild type EGFR kinase inhibition test (z-lyte); type: biochemical; conditions: 10 μM ATP; read-out: EGFR WT IC50
# Source text: All the following reagents used in z-lyte test are commercially available from Invitrogen.
# The calculation method for the inhibition ratio (referring to the specification of Invitrogen, PV3363) was as follows: ER=Coumarin Emission(450 nm)/Fluorescein Emission(520 nm) 1. Phosphorylation ratio=(1−((ER×C3520nm−C3450nm)/((C1450nm−C3450nm)+ER×(C3520nm−C1520nm))))×100% 2. Inhibition ratio (IR)=(1−phosphorylation ratio of the test compound)/(phosphorylation ratio of C2))×100% 3.
# The half-inhibitory concentration IC50 was calculated by fitting with XLFIT 5.0 software (IDBS, UK).
# BTK WT = BTK WT (Homo sapiens (Human), UniProt Q06187); assay: Lantha screening kinase reaction, inhibition of BTK WT; type: biochemical
# Sequence of BTK WT (Q06187 whole entry): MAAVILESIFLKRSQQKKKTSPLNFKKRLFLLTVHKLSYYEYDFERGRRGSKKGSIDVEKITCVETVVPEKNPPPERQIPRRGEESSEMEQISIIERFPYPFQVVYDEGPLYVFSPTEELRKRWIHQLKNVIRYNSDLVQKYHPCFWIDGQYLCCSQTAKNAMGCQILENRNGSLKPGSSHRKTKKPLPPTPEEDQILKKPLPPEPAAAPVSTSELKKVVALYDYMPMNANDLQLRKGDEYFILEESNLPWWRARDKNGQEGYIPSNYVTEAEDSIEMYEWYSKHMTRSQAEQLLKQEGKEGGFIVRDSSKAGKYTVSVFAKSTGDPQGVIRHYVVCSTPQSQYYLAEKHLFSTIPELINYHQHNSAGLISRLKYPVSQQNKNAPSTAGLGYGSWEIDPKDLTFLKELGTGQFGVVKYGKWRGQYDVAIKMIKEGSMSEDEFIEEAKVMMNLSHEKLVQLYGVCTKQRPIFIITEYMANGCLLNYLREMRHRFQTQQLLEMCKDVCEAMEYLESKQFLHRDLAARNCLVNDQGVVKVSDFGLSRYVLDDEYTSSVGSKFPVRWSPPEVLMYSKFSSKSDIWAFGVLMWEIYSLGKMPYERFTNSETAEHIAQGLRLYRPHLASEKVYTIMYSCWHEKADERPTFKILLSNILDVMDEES
# Protocol: The compound was predissolved in 100% DMSO. 10 mM drug stock solution was obtained by dissolution at room temperature and then serially diluted with 8 vol % DMSO solution to a final concentration of 10-0.005 μM. […] Among the wells, the kinase in the blank well was replaced with a reaction buffer and the kinase well (Enzyme) was not added with any drug. After shaking at 25° C. for 60 minutes in the dark, 10 μl of Detection Solution (mixture of Invitrogen PV3528 and EDTA, which was diluted with TR-FRET dilution buffer, the working concentration of EDTA was 5 mM, the working concentration of Lanthascreening Tb PY20 antibody was 0.2 nM) was added and shaken at room temperature for 30 minutes. The plates were read on a VictorX5 fluorescent plate reader (PerkinElmer) and the light absorption at an excitation wavelength of 340 nm and emission wavelengths of 500 nm and 520 nm was measured.
# The calculation method for the inhibition ratio (referring to the specification of Invitrogen, PV3363) was as follows: Emission ratio (ER):Coumarin Emission (520 nm)/Fluorescein Emission (500 nm) 1. The inhibition ratio (IR):(ERkinase−ERtest compound)/(ERkinase−ERblank)×100%. 2.
# The half-inhibitory concentration IC50 was calculated by fitting with XLFIT5.0 software (IDBS, UK).
# βBTK Y223 = βBTK Y223 (Homo sapiens (Human), UniProt Q06187); assay: Intracellular βBTK Y223 phosphorylation HTRF in Ramos cells; type: cell-based
# Sequence of βBTK Y223 (Q06187 whole entry): as above
# Protocol: The compound was predissolved in 100% DMSO. […] 20 μl of lysate (4× lysate: blocked mother liquor is 25:1) was added to each well and incubated for 30 minutes at 25° C. on a shaker. It was shaken on an oscillator at 800 rpm for 1 minute. […] The half-inhibitory concentration IC50 was calculated by fitting with XLFIT 5.0 software (IDBS, UK).
# in vivo = conditions: mouse, in vivo, po, 30 mg/kg
# Protocol: Test Animals: ICR mice, weight 28-30 g, male, totally 12, purchased from SLAC Laboratory Animal Co., Ltd. Mice were fasting one night before administration and freely fed 4 hours after administration.
# Administration and Blood collection: 6 mice were administered intragastrically (PO) in a administered dosage of 30 mg/kg and a administered volume of 10 mL/kg. One administration route was subjected with 6 mice, blood samples of three mice were collected at one time point, and blood samples of another three mice were collected at alternate time point alternately. Blood was collected at 8 time points of 0.083, 0.25, 0.5, 1, 2, 4, 8, 24 h after administration respectively.
# Animals were manually controlled at the time of collection and approximately 80 μL of blood was collected from the mice fundus venous plexus into a tube containing K2EDTA. The collected blood sample was put on wet ice, centrifuged within 15 min (8000 rpm, 4 min at 4° C.), and then the plasma sample was taken and stored at minus 20° C. till analysis. The compounds were prepared on the day of the experiment.
# Solvent excipient information: DMSO (brand: Sigma, batch number: SHBD2446V); 2-hydroxypropyl-3-cyclodextrin (brand: Sigma, batch number: BCBN8227V), acetic acid (brand: Sinopharm Group, batch number: 20150616), sodium acetate (Brand: GENERAL-REAGENT, batch number: P1246037).
# Preparation of a 3 mg/mL PO dosing solution: the solvent was a solution of 5% DMSO and 95% PH4.5 (sodium acetate-acetate) in 20% of 2-hydroxypropyl-β-cyclodextrin.
# Analytical method: Plasma samples were analyzed by liquid chromatography-tandem mass spectrometry (Instrument type: Triple Quad™ 4000).
# Preparation of the standard curve: preparing a standard curve of the test compound 1n the plasma matrix of ICR mice with a linear range of 1.00-3000 ng/mL, and preparing control samples at low, medium and high concentrations of 3 ng/mL, 500 ng/mL, and 2400 ng/mL respectively.
# Treatment of biological samples: the frozen plasma samples were thawed on ice, and after the samples were thawed, they were vortexed on a vortex for 5 min. 20 μL of plasma sample was added to a 96-well plate, and 200 μL of acetonitrile (brand: Merck, Lot: 1854029643) containing an internal standard dexamethasone (Brand: NIFDC, Lot: 1N2V-DPGY, 2000 ng/mL) was added to precipitate protein, which were vortexed for 5 min, and then centrifuged at 3700 rpm and 4° C. for 15 min. The supernatant was extracted and twice centrifuged under the same conditions, and finally 2 μL of the supernatant solution was analyzed by LC-MS/MS.
# Sequence of wild-type EGFR kinase (P00533 25-1210): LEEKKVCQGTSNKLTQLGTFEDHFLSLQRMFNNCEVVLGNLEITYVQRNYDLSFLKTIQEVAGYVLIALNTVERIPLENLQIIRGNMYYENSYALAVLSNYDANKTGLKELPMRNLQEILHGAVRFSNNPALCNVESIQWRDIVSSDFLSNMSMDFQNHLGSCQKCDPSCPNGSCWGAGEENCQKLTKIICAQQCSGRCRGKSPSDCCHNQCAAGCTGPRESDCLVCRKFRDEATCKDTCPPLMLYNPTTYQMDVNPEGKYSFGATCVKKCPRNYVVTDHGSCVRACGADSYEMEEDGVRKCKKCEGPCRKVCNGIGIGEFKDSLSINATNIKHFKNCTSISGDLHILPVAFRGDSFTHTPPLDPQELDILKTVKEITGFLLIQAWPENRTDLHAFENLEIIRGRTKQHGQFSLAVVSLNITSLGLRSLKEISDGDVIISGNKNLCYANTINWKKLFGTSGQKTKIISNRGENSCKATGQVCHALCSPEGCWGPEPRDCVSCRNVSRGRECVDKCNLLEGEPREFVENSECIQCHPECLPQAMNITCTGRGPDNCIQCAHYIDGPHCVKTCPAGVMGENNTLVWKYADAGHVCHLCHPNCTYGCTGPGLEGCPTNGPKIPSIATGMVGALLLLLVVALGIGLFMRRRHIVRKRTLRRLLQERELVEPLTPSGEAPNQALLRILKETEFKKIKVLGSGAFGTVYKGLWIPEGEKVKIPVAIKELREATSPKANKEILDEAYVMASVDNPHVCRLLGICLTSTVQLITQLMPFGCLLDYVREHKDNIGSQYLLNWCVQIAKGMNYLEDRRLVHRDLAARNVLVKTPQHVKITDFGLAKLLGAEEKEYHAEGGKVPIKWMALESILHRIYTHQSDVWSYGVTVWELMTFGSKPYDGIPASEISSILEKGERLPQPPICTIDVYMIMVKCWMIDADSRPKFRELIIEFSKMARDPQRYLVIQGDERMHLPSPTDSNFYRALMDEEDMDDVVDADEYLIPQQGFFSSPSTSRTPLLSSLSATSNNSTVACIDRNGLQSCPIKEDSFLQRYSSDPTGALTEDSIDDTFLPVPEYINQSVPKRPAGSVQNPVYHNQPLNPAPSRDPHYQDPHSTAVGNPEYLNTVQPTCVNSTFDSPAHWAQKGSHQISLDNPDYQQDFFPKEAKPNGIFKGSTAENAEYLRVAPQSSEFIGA
Structure (SMILES),IC50 (wild-type EGFR kinase),IC50 (BTK WT),IC50 (βBTK Y223),also measured
"C=CC(=O)N1CCCC(Nc2nc(Nc3ccc(OCCOC)cc3)c3c(c2F)CNC3=O)C1 (stereo not shown) [Compound G-2, 6-(1-acryloylpiperidin-3-ylamino)-7-fluoro-4-(4-(2-methoxyethoxy)phenylamino)-1H-pyrrolo[3,4-c]pyridine-3 (2H)-one]",1620 nM,3 nM,5 nM,
"C=CC(=O)N1CCCCC(Nc2nc(Nc3ccc(OCCOC)cc3)c3c(c2F)CNC3=O)C1 (stereo not shown) [Compound G-3, 6-(1-acryloylazacycloheptane-3-ylamino)-7-fluoro-4-(4-(2-methoxyethoxy)phenylamino)-1H-pyrrolo[3,4-c]pyridine-3 (2H)-one]",2290 nM,2 nM,11 nM,
C=CC(=O)N1CCCC(Nc2nc(Nc3ccc(OCCOC)cc3)c3c(c2F)CNC3=O)CC1 (stereo not shown) [Compound G-4],2370 nM,7 nM,23 nM,
C=CC(=O)N1CC(Nc2nc(Nc3ccc(OCCOC)cc3)c3c(c2F)CNC3=O)C1 [Compound G-5],1910 nM,48 nM,59 nM,
C=CC(=O)N1CCC(Nc2nc(Nc3ccc(OCCOC)cc3)c3c(c2F)CNC3=O)CC1 [Compound G-6],,,29 nM,
C=CC(=O)N1CCCC(Nc2nc(Nc3cnn(C4CCOCC4)c3)c3c(c2F)CNC3=O)C1 (stereo not shown) [Compound G-10],1740 nM,3 nM,7 nM,
C=CC(=O)N1CCCC(Nc2nc(Nc3ccc(N4CCN(C)CC4)cc3)c3c(c2F)CNC3=O)C1 (stereo not shown) [Compound G-11],4250 nM,1 nM,2 nM,
C=CC(=O)N1CCCC(Nc2nc(Nc3ccc(N4CCN(C)CC4)cn3)c3c(c2F)CNC3=O)C1 (stereo not shown) [Compound G-12],3850 nM,21 nM,80 nM,
C=CC(=O)N1CCCC(Nc2nc(Nc3cnn(C4CCS(=O)(=O)CC4)c3)c3c(c2F)CNC3=O)C1 (stereo not shown) [Compound G-13],1600 nM,3 nM,45 nM,
C=CC(=O)N1CCCC(Nc2nc(Nc3cnn(C4CN(C)CC4F)c3)c3c(c2F)CNC3=O)C1 (stereo not shown) [Compound G-15],1220 nM,3 nM,5 nM,
C=CC(=O)N1CCCC(Nc2nc(Nc3ccc(N4CCOCC4=O)cc3)c3c(c2F)CNC3=O)C1 (stereo not shown) [Compound G-17],1500 nM,2 nM,16 nM,
C=CC(=O)N1CCCC(Nc2nc(Nc3cc(C)ns3)c3c(c2F)CNC3=O)C1 (stereo not shown) [Compound G-23],1800 nM,5 nM,,Area under curve AUC (in vivo): 645 ng·h/mL; Maximum blood concentration Cmax (in vivo): 878.7 ng/mL; Oral relative bioavailability F (%) (in vivo): 14%; Tmax (in vivo): 4.8 min; half-time T1/2 (in vivo): 195 min
C=CC(=O)N1CCCC(Nc2nc(Nc3cnn(C)c3)c3c(c2F)CNC3=O)C1 (stereo not shown) [Compound G-25],1090 nM,2 nM,2 nM,
C=CC(=O)N1CCCCC(Nc2nc(Nc3ccc(N4CCOCC4)cc3)c3c(c2F)CNC3=O)C1 (stereo not shown) [Compound G-27],3690 nM,5 nM,11 nM,
C=CC(=O)N1CC(Nc2nc(Nc3ccc(N4CCOCC4)cc3)c3c(c2F)CNC3=O)CCC1C (stereo not shown) [Compound G-28],2300 nM,5 nM,10 nM,
C=CC(=O)N1CCCC(Nc2nc(Nc3ccc(N4CCOCC4C)cc3)c3c(c2F)CNC3=O)C1 (stereo not shown) [Compound G-32],5340 nM,5 nM,,Area under curve AUC (in vivo): 1463 ng·h/mL; Maximum blood concentration Cmax (in vivo): 837.7 ng/mL; Oral relative bioavailability F (%) (in vivo): 14.7%; Tmax (in vivo): 30 min; half-time T1/2 (in vivo): 72.6 min
C=CC(=O)N1CCCC(Nc2nc(Nc3ccc(N4CCOCC4)c(F)c3)c3c(c2F)CNC3=O)C1 (stereo not shown) [Compound G-33],7170 nM,5 nM,,Area under curve AUC (in vivo): 1193 ng·h/mL; Maximum blood concentration Cmax (in vivo): 964.0 ng/mL; Oral relative bioavailability F (%) (in vivo): 15.6%; Tmax (in vivo): 4.8 min; half-time T1/2 (in vivo): 71.4 min
C=CC(=O)N1CCCC(Nc2nc(Nc3ccc(N4CCN(C5COC5)CC4C)cc3)c3c(c2F)CNC3=O)C1 (stereo not shown) [Compound G-34],3170 nM,5 nM,,Area under curve AUC (in vivo): 1869 ng·h/mL; Maximum blood concentration Cmax (in vivo): 1990.0 ng/mL; Oral relative bioavailability F (%) (in vivo): 28.6%; Tmax (in vivo): 4.8 min; half-time T1/2 (in vivo): 86.4 min
C=CC(=O)N1CCCC(Nc2nc(Nc3cnn(C)n3)c3c(c2F)CNC3=O)C1 (stereo not shown) [Compound G-35],,,35 nM,
C=CC(=O)N1CC(Nc2nc(Nc3ccc(N4CCOCC4)c(F)c3)c3c(c2F)CNC3=O)CCC1C (stereo not shown) [Compound G-41],,2 nM,3 nM,
C=CC(=O)N1CCCC(Nc2nc(Nc3ccc(N4CCOCC4C)c(F)c3)c3c(c2F)CNC3=O)C1 (stereo not shown) [Compound G-42],5190 nM,5 nM,,Area under curve AUC (in vivo): 1266 ng·h/mL; Maximum blood concentration Cmax (in vivo): 945.0 ng/mL; Oral relative bioavailability F (%) (in vivo): 12.3%; Tmax (in vivo): 15 min; half-time T1/2 (in vivo): 104 min
C=CC(=O)N1CCCC(Nc2nc(-c3cnn(C4CC4)c3)c3c(c2F)CNC3=O)C1 (stereo not shown) [Compound G-45],,69 nM,109 nM,
C=CC(=O)N1CCCC(Nc2nc(-c3cnn(C(F)F)c3)c3c(c2F)CNC3=O)C1 (stereo not shown) [Compound G-48],,,62 nM,
C=CC(=O)N1CCCC(Nc2nc(-c3cnn(C)c3)c3c(c2F)CNC3=O)C1C (stereo not shown) [Compound G-51],6820 nM,62 nM,80 nM,
"C=CC(=O)N1CCCC(Nc2nc3c(c(Nc4cnn(C)c4)n2)C(=O)NC3)C1 (stereo not shown) [Compound G-59, 2-(1-acryloylpiperidin-3-ylamino)-4-(1-methyl-1H-pyrazole-4-ylamino)-6,7-dihydrogen-5H-pyrrolo[3,4-d]pyrimidine-5-one]",1020 nM,13 nM,16 nM,
C=CC(=O)N1CCC2CN(c3nc(Nc4cnn(C)c4)c4c(c3F)CNC4=O)CC21 (stereo not shown) [Compound G-87],,1 nM,4 nM,
C=CC(=O)N1CCC[C@@H](Nc2nc(-c3cnn(C)c3)c3c(c2F)CNC3=O)C1 [Compound G-111],> 10000 nM,69 nM,,"AUC (in vivo; male, ICR): 2180 ng·h/mL; Cmax (in vivo; male, ICR): 3490 ng/mL; Tmax (in vivo; male, ICR): 4.8 min; bioavailability (in vivo; male, ICR): 79.7%; half-life (in vivo; male, ICR): 356 min"
C=CC(=O)N1CCC[C@H](Nc2nc(Nc3ccc(N4CCOCC4)cc3)c3c(c2F)CNC3=O)C1 [Compound G-114],4130 nM,34 nM,,"AUC (in vivo; male, ICR): 1070 ng·h/mL; Cmax (in vivo; male, ICR): 1240 ng/mL; Tmax (in vivo; male, ICR): 4.8 min; bioavailability (in vivo; male, ICR): 13.7%; half-life (in vivo; male, ICR): 148 min"
